# Several values for one entry are separate records, joined by “and”; a condition that tells them apart may be missing. Equal values may be shown once. Toxic doses and inconclusive results are not listed.
# System: CD2F1 mice, L1210 leukemia ip, survival T/C
# Assay: NCI In Vivo Anticancer Drug Screen. Data for tumor model L1210 Leukemia (intraperitoneal) in CD2F1 (CDF1) mice
# Details: higher = longer survival
# How it was run: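 Tumor-bearing mice (transplanted tumor) were split into treated and vehicle control groups, and the measured endpoint of each treated group was divided by that of its vehicle controls.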
# [1] = endpoint: mean survival time, dose: 25.0 mg/kg/injection, schedule: Q01DX009 (ip), vehicle: saline with Tween-80
# [2] = endpoint: mean survival time, dose: 50.0 mg/kg/injection, schedule: Q01DX009 (ip), vehicle: saline with Tween-80
# [3] = endpoint: mean survival time, dose: 100.0 mg/kg/injection, schedule: Q04DX003 (ip), vehicle: saline
# [4] = endpoint: mean survival time, dose: 25.0 mg/kg/injection, schedule: Q04DX003 (ip), vehicle: saline with Tween-80
# [5] = endpoint: mean survival time, dose: 100.0 mg/kg/injection, schedule: Q04DX003 (ip), vehicle: saline with Tween-80
smiles,measurement,setting,value
O=C(Nc1ccc(C2=NCCN2)cc1)c1ccc(C(=O)Nc2ccc(C3=NCCN3)cc2)c(Cl)c1,T/C,"endpoint: mean survival time, dose: 0.78 mg/kg/injection, schedule: Q01DX009 (ip), vehicle: saline with Tween-80",104 % of control
same,T/C,"endpoint: mean survival time, dose: 1.56 mg/kg/injection, schedule: Q01DX009 (ip), vehicle: saline with Tween-80",104 % of control and 110 % of control and 114 % of control
same,T/C,"endpoint: mean survival time, dose: 2.5 mg/kg/injection, schedule: Q01DX009 (ip), vehicle: saline",110 % of control
same,T/C,"endpoint: mean survival time, dose: 5.0 mg/kg/injection, schedule: Q01DX009 (ip), vehicle: saline",110 % of control
same,T/C,"endpoint: mean survival time, dose: 8.0 mg/kg/injection, schedule: Q01DX008 (iv), vehicle: water",104 % of control
same,T/C,"endpoint: mean survival time, dose: 12.5 mg/kg/injection, schedule: Q01DX009 (ip), vehicle: saline with Tween-80",203 % of control
same,T/C,"endpoint: mean survival time, dose: 20.0 mg/kg/injection, schedule: Q01DX009 (ip), vehicle: saline",179 % of control
same,T/C,[1],250 % of control
same,T/C,"endpoint: mean survival time, dose: 40.0 mg/kg/injection, schedule: Q01DX009 (ip), vehicle: saline",234 % of control
same,T/C,[2],86 % of control and 92 % of control
same,T/C,"endpoint: median survival time, dose: 10.0 mg/kg/injection, schedule: Q04DX003 (ip), vehicle: saline with Tween-80",113 % of control
same,T/C,"endpoint: median survival time, dose: 40.0 mg/kg/injection, schedule: Q04DX003 (ip), vehicle: saline with Tween-80",162 % of control
same,T/C,"endpoint: median survival time, dose: 80.0 mg/kg/injection, schedule: Q04DX003 (ip), vehicle: saline with Tween-80",228 % of control
CC(CSc1ccccc1)NCCO (configuration not stated),T/C,"endpoint: mean survival time, dose: 25.0 mg/kg/injection, schedule: Q04DX003 (ip), vehicle: saline",95 % of control
same,T/C,"endpoint: mean survival time, dose: 50.0 mg/kg/injection, schedule: Q04DX003 (ip), vehicle: saline",94 % of control
same,T/C,[3],100 % of control
CCCCC(N)C(=O)O (configuration not stated),T/C,"endpoint: mean survival time, dose: 100.0 mg/kg/injection, schedule: Q01DX001 (ip), vehicle: saline with Tween-80",104 % of control
same,T/C,[3],105 % of control
same,T/C,"endpoint: mean survival time, dose: 200.0 mg/kg/injection, schedule: Q01DX001 (ip), vehicle: saline with Tween-80",104 % of control
same,T/C,"endpoint: mean survival time, dose: 200.0 mg/kg/injection, schedule: Q04DX003 (ip), vehicle: saline",103 % of control
same,T/C,"endpoint: mean survival time, dose: 400.0 mg/kg/injection, schedule: Q01DX001 (ip), vehicle: saline with Tween-80",102 % of control
same,T/C,"endpoint: mean survival time, dose: 400.0 mg/kg/injection, schedule: Q04DX003 (ip), vehicle: saline",95 % of control
C[C@@H](C[P+](c1ccccc1)(c1ccccc1)c1ccccc1)[C@](OC(=O)c1ccccc1)(C(=O)c1ccccc1)c1ccccc1,T/C,"endpoint: mean survival time, dose: 6.25 mg/kg/injection, schedule: Q01DX001 (ip), vehicle: saline with Tween-80",100 % of control
same,T/C,"endpoint: mean survival time, dose: 12.5 mg/kg/injection, schedule: Q01DX001 (ip), vehicle: saline with Tween-80",105 % of control
same,T/C,"endpoint: mean survival time, dose: 25.0 mg/kg/injection, schedule: Q01DX001 (ip), vehicle: saline with Tween-80",109 % of control
Cc1ccccc1OCCO,T/C,"endpoint: mean survival time, dose: 50.0 mg/kg/injection, schedule: Q01DX009 (ip), vehicle: other",100 % of control
same,T/C,"endpoint: mean survival time, dose: 100.0 mg/kg/injection, schedule: Q01DX009 (ip), vehicle: other",116 % of control and 100 % of control
same,T/C,"endpoint: mean survival time, dose: 200.0 mg/kg/injection, schedule: Q01DX009 (ip), vehicle: other",102 % of control and 103 % of control
same,T/C,"endpoint: mean survival time, dose: 400.0 mg/kg/injection, schedule: Q01DX009 (ip), vehicle: other",100 % of control
OCCN1CCN(CCO)CC1.[Cl][Pt+2][Cl],T/C,[4],101 % of control
same,T/C,[5],97 % of control
same,T/C,"endpoint: mean survival time, dose: 200.0 mg/kg/injection, schedule: Q04DX003 (ip), vehicle: saline with Tween-80",94 % of control
CN(C(=S)S(=O)(=O)C12CC3CC(CC(C3)C1)C2)c1ccccc1,T/C,"endpoint: mean survival time, dose: 3.12 mg/kg/injection, schedule: Q01DX009 (ip), vehicle: Klucel (hydroxypropylcellulose) (HPC)",94 % of control and 96 % of control and 105 % of control
same,T/C,"endpoint: mean survival time, dose: 6.25 mg/kg/injection, schedule: Q01DX009 (ip), vehicle: Klucel (hydroxypropylcellulose) (HPC)",100 % of control (2×) and 105 % of control
same,T/C,"endpoint: mean survival time, dose: 12.5 mg/kg/injection, schedule: Q01DX009 (ip), vehicle: Klucel (hydroxypropylcellulose) (HPC)",100 % of control and 102 % of control and 107 % of control
same,T/C,"endpoint: mean survival time, dose: 25.0 mg/kg/injection, schedule: Q01DX009 (ip), vehicle: Klucel (hydroxypropylcellulose) (HPC)",98 % of control and 102 % of control and 107 % of control
same,T/C,"endpoint: mean survival time, dose: 50.0 mg/kg/injection, schedule: Q01DX009 (ip), vehicle: Klucel (hydroxypropylcellulose) (HPC)",96 % of control and 104 % of control and 105 % of control
same,T/C,"endpoint: mean survival time, dose: 100.0 mg/kg/injection, schedule: Q01DX009 (ip), vehicle: Klucel (hydroxypropylcellulose) (HPC)",117 % of control and 96 % of control and 102 % of control
NC(CO)(CO)CO,T/C,"endpoint: mean survival time, dose: 100.0 mg/kg/injection, schedule: Q01DX009 (ip), vehicle: saline",98 % of control
same,T/C,"endpoint: mean survival time, dose: 200.0 mg/kg/injection, schedule: Q01DX009 (ip), vehicle: saline",93 % of control
same,T/C,"endpoint: mean survival time, dose: 400.0 mg/kg/injection, schedule: Q01DX009 (ip), vehicle: saline",100 % of control
C[N+](C)(CCO)Cc1ccccc1,T/C,[1],102 % of control
same,T/C,[4],97 % of control
same,T/C,[2],105 % of control
same,T/C,"endpoint: mean survival time, dose: 50.0 mg/kg/injection, schedule: Q04DX003 (ip), vehicle: saline with Tween-80",100 % of control
same,T/C,"endpoint: mean survival time, dose: 100.0 mg/kg/injection, schedule: Q01DX009 (ip), vehicle: saline with Tween-80",105 % of control
same,T/C,[5],96 % of control and 101 % of control
